Measured values reported in the NIST ThermoML archive (doi:10.1016/j.tca.2013.03.025).
± gives the expanded uncertainty stated by the source.

Experiment: refractive index (Na D-line) (dimensionless); xn = mol fraction of the nth substance listed
Conditions: 101 kPa, Liquid, Standard Abbe refractometry

CCCCOC(=O)C(C)O (stereo not given) [butyl 2-hydroxypropanoate] + CCCO
refractive index
Conditions	x1 = 0.1	x1 = 0.2	x1 = 0.3001	x1 = 0.3998	x1 = 0.5	x1 = 0.5999	x1 = 0.7001	x1 = 0.7996	x1 = 0.8998	x1 = 1
288.15 K	1.39449 ± 0.00035	1.4003 ± 0.00037	1.4052 ± 0.0004	1.40922 ± 0.00043	1.41285 ± 0.00047	1.41543 ± 0.00051	1.41816 ± 0.00055	1.42021 ± 0.00059	1.42209 ± 0.00063	1.42379 ± 0.00068
293.15 K	1.39238 ± 0.00035	1.39818 ± 0.00037	1.40305 ± 0.0004	1.40704 ± 0.00043	1.41067 ± 0.00047	1.41321 ± 0.00051	1.41593 ± 0.00055	1.41798 ± 0.00059	1.41984 ± 0.00063	1.42152 ± 0.00068
298.15 K	1.39028 ± 0.00035	1.39605 ± 0.00037	1.40088 ± 0.0004	1.40485 ± 0.00043	1.40846 ± 0.00047	1.41101 ± 0.00051	1.41369 ± 0.00055	1.41572 ± 0.00059	1.41758 ± 0.00063	1.41925 ± 0.00068
303.15 K	1.38813 ± 0.00035	1.39389 ± 0.00037	1.3987 ± 0.0004	1.40265 ± 0.00043	1.40623 ± 0.00047	1.40877 ± 0.00051	1.41144 ± 0.00055	1.41346 ± 0.00059	1.4153 ± 0.00063	1.41697 ± 0.00068
308.15 K	1.38599 ± 0.00035	1.3917 ± 0.00037	1.39651 ± 0.0004	1.40042 ± 0.00043	1.40398 ± 0.00047	1.40652 ± 0.00051	1.40919 ± 0.00055	1.4112 ± 0.00059	1.41304 ± 0.00063	1.41469 ± 0.00068
313.15 K	1.38382 ± 0.00035	1.38951 ± 0.00037	1.39427 ± 0.0004	1.3982 ± 0.00043	1.4017 ± 0.00047	1.40425 ± 0.00051	1.40691 ± 0.00055	1.40893 ± 0.00059	1.41077 ± 0.00063	1.4124 ± 0.00068
318.15 K	1.3816 ± 0.00035	1.38726 ± 0.00037	1.39198 ± 0.0004	1.39591 ± 0.00043	1.39938 ± 0.00047	1.40195 ± 0.00051	1.40455 ± 0.00055	1.40658 ± 0.00059	1.40842 ± 0.00063	1.41005 ± 0.00068
323.15 K	1.37938 ± 0.00035	1.38505 ± 0.00037	1.38973 ± 0.0004	1.39364 ± 0.00043	1.3971 ± 0.00047	1.39967 ± 0.00051	1.40228 ± 0.00055	1.40433 ± 0.00059	1.40617 ± 0.00063	1.40778 ± 0.00068

CCCCOC(=O)C(C)O (stereo not given) [butyl 2-hydroxypropanoate] + OCCCO
refractive index
Conditions	x1 = 0.0999	x1 = 0.2	x1 = 0.3001	x1 = 0.4	x1 = 0.4999	x1 = 0.5999	x1 = 0.6996	x1 = 0.8001	x1 = 0.9	x1 = 1
288.15 K	1.43875 ± 0.00039	1.43674 ± 0.00042	1.43484 ± 0.00045	1.43308 ± 0.00048	1.43138 ± 0.00051	1.42969 ± 0.00054	1.42809 ± 0.00057	1.42652 ± 0.00061	1.4251 ± 0.00064	1.42379 ± 0.00068
293.15 K	1.43724 ± 0.00039	1.4351 ± 0.00042	1.43311 ± 0.00045	1.43126 ± 0.00048	1.42947 ± 0.00051	1.4277 ± 0.00054	1.42602 ± 0.00057	1.42438 ± 0.00061	1.4229 ± 0.00064	1.42152 ± 0.00068
298.15 K	1.43568 ± 0.00039	1.43346 ± 0.00042	1.43136 ± 0.00045	1.42942 ± 0.00048	1.42754 ± 0.00051	1.42569 ± 0.00054	1.42396 ± 0.00057	1.42225 ± 0.00061	1.4207 ± 0.00064	1.41925 ± 0.00068
303.15 K	1.43417 ± 0.00039	1.4318 ± 0.00042	1.4296 ± 0.00045	1.42758 ± 0.00048	1.42563 ± 0.00051	1.42369 ± 0.00054	1.42187 ± 0.00057	1.4201 ± 0.00061	1.4185 ± 0.00064	1.41697 ± 0.00068
308.15 K	1.43265 ± 0.00039	1.43015 ± 0.00042	1.42783 ± 0.00045	1.42571 ± 0.00048	1.42367 ± 0.00051	1.42167 ± 0.00054	1.4198 ± 0.00057	1.41796 ± 0.00061	1.41629 ± 0.00064	1.4147 ± 0.00068
313.15 K	1.43112 ± 0.00039	1.42848 ± 0.00042	1.42606 ± 0.00045	1.42385 ± 0.00048	1.42173 ± 0.00051	1.41964 ± 0.00054	1.4177 ± 0.00057	1.41579 ± 0.00061	1.41408 ± 0.00064	1.41241 ± 0.00068
318.15 K	1.4296 ± 0.00039	1.42681 ± 0.00042	1.42426 ± 0.00045	1.42197 ± 0.00048	1.41977 ± 0.00051	1.41759 ± 0.00054	1.41556 ± 0.00057	1.41358 ± 0.00061	1.41183 ± 0.00064	1.41006 ± 0.00068
323.15 K	1.42813 ± 0.00039	1.42537 ± 0.00042	1.42267 ± 0.00045	1.42009 ± 0.00048	1.41772 ± 0.00051	1.41555 ± 0.00054	1.41347 ± 0.00057	1.41153 ± 0.00061	1.40962 ± 0.00064	1.40778 ± 0.00068
